The target of data set [1] is Cholinesterase (Equus caballus) (UniProt P81908). Kind of data set: Inhibition of equine BuChE at 10 uM using ACTI as substrate preincubated for 29 mins followed by substrate addition measured at 1 min intervals for 10 mins by Ellman's assay. A general note: Ellman's reagent forms a yellow product with free thiols.
The target of data set [2] is Acetylcholinesterase (Electrophorus electricus) (UniProt O42275). Kind of data set: Inhibition of electric eel AChE at 10 uM using ACTI as substrate preincubated for 29 mins followed by substrate addition measured at 1 min intervals for 10 mins by Ellman's assay.
Data set [3] deals with Cholinesterase (Equus caballus, UniProt P81908).
Description: Inhibition of equine BuChE using ACTI as substrate preincubated for 29 mins followed by substrate addition measured at 1 min intervals for 10 mins by Ellman's assay
Data set [4] addresses Acetylcholinesterase (Homo sapiens) (UniProt P22303). Nature of the data set: Inhibition of human AChE at 10 uM using ACTI as substrate incubated for 40 mins measured at 1 min intervals for 10 mins by Ellman's assay.
A short description of data set [5]: Selectivity ratio of IC50 for equine BuChE to IC50 for human BuChE.
The nature of data set [6]: Stability of compound in crystallization buffer at pH 7.4 at 0.1 mg/mL incubated for 24 hrs by RP-HPLC analysis. Type of data set: physicochemical. The conditions noted are these: pH 7.4, 24 h.
Data set [7] in a line: Stability of compound in crystallization buffer at pH 7.4 at 0.1 mg/mL incubated for 24 hrs by RP-HPLC analysis in presence of equine BuChE. The data set is classed as physicochemical. Particulars: pH 7.4, 24 h.
The nature of data set [8]: Permeability of compound at 10 uM after 4 hrs by PAMPA. Type of data set: ADME. Particulars: read-out: permeability.
Another data set has as its system SH-SY5Y. Kind of data set: Cytotoxicity against human SH-SY5Y cells at 0.5 to 10 uM after 48 hrs by MTT assay. The data set is classed as cell-based. For orientation: Tetrazolium assays rely on reduction of a dye to a coloured formazan, in cell work by metabolically active cells.
Data set [9] deals with Cholinesterase (Homo sapiens, UniProt P06276).
Description: Inhibition of human BuChE using ACTI as substrate incubated for 40 mins measured at 1 min intervals for 10 mins by Ellman's assay

Activity calls are given as the source filed them. No cut-off for these calls is given here.

Acetylcholinesterase (Electrophorus electricus), sequence (O42275 24-633 limits assumed): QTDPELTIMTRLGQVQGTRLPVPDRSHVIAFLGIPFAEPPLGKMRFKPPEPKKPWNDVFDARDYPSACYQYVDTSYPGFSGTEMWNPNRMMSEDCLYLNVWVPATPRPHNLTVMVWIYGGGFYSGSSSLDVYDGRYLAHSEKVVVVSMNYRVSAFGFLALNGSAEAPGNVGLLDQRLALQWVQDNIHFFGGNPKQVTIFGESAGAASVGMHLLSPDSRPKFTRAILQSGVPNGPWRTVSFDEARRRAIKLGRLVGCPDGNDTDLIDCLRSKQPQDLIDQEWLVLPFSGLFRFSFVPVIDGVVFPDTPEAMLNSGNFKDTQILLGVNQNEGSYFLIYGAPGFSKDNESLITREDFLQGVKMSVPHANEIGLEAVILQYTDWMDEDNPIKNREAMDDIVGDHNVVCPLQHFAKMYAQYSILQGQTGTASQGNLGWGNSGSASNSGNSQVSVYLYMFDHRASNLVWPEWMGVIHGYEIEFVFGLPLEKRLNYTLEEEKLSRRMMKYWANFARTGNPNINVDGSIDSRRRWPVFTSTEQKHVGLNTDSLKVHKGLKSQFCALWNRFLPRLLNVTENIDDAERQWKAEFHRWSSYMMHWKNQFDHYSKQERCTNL
Cholinesterase (Equus caballus, UniProt P81908), sequence (P81908 whole entry): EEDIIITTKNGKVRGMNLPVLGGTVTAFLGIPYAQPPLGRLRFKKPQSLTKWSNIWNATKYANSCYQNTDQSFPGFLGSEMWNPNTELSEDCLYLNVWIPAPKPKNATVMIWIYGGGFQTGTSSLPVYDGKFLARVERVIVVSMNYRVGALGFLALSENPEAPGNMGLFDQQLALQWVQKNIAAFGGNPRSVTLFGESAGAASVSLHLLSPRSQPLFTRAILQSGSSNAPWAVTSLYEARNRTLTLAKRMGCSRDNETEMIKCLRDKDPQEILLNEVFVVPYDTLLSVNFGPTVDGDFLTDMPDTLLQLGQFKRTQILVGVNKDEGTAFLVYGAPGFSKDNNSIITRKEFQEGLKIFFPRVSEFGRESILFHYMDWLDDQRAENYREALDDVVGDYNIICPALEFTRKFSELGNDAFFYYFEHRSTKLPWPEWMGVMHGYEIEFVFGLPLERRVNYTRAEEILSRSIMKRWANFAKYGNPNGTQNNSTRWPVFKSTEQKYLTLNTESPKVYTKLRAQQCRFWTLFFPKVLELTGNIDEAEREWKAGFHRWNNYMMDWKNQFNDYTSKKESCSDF
Cholinesterase (Equus caballus), sequence (P81908 whole entry): as above
Acetylcholinesterase (Homo sapiens), sequence (P22303 whole entry): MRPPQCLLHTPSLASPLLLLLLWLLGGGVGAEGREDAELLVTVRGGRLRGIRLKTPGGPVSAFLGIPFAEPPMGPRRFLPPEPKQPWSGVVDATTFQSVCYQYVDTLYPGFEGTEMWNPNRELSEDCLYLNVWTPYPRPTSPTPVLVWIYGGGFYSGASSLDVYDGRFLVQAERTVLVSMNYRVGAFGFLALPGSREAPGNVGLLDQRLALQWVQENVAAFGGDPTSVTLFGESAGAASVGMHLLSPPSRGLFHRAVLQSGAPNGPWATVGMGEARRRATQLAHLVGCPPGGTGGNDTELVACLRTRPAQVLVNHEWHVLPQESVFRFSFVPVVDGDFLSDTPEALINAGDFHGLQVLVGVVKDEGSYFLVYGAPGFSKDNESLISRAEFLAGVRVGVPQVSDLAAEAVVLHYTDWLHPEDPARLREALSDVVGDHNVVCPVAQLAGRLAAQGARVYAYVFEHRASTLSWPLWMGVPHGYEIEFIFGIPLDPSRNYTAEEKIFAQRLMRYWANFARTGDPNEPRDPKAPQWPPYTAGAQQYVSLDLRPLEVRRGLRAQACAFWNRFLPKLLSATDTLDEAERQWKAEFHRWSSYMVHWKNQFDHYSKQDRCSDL
Cholinesterase (Homo sapiens, UniProt P06276), sequence (P06276 whole entry): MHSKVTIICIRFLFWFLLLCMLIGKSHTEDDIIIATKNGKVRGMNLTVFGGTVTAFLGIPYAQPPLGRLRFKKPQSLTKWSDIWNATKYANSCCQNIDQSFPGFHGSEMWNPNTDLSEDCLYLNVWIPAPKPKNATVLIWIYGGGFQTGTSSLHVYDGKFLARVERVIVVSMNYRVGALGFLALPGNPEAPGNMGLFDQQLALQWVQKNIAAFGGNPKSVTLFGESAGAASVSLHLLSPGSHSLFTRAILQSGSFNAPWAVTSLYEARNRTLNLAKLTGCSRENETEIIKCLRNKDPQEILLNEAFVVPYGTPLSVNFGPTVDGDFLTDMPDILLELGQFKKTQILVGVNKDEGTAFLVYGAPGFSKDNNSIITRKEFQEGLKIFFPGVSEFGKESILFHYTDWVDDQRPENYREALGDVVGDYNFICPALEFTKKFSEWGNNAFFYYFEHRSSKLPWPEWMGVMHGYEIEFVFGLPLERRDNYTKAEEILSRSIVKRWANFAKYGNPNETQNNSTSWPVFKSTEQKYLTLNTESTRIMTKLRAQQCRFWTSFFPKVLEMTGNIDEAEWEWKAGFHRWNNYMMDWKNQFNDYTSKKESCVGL

By inhibition is commonly meant the percentage by which the read-out fell short of the control. On to `COc1ccccc1NC(=O)Cn1c(CCC(=O)O)ccc1-c1ccccc1`, for which the inhibition in data set [1] is 5.54%; in data set [2] it was 2.2%.

For `CCn1c2ccccc2c2cc(C3C(C(=O)OC)=C(C)NC4=C3C(=O)CCC4)ccc21` (stereo unspecified), in data set [1], the inhibition turned out to be 49.5%.

For `CN(CC(=O)Nc1ccccc1F)S(=O)(=O)c1ccc2ccccc2c1`, the results for the inhibition in data set [1] and in data set [2] were 5.64% and 3.43%, respectively.

Consider `Cc1cc(C)n(C[C@H](O)CN(Cc2nc3ccccc3[nH]2)Cc2ccco2)n1`, for which the inhibition in data set [1] came out at 6.33%; in [2], 2.32%.

The term IC50 denotes the concentration that gives 50% inhibition. On to `Cc1ccccc1-n1nc(C)c(CN(CCN(C)C)Cc2ccccn2)c1C`, for which the inhibition in [1] was determined as 31.9%; in data set [2], 2.46%. For the same compound, the IC50 against Cholinesterase [3] worked out at 19.2 µM.

Consider `CCOC(=O)N1CCN([C@H]2CC(=O)N(c3cccc4ccccc34)C2=O)CC1`, for which the inhibition in data set [1] was 1.85%; in [2], 4.93%.

With `Cc1cccc(C2(O)CCN(Cc3c(-c4cccs4)[nH]c4ncccc34)CC2)c1`, the inhibition in data set [1] was 16.2%; in data set [2], 2.14%. At Cholinesterase [3], this compound yielded an IC50 of 48.9 µM.

For `CCn1c2ccccc2c2cc(C3C(C(=O)OC4CCCC4)=C(C)NC4=C3C(=O)CC(C)(C)C4)ccc21` (stereo unspecified), the inhibition in data set [1] turned out to be 2.53%.

For `O[C@H](CN1CCN(c2ccccc2)CC1)c1c[nH]c2ccc(F)cc12`, the inhibition in data set [1] came to 1.31%; in [2], 2.69%.

For `O=C(CS[C@@H]1CC(=O)N(c2ccccc2)C1=O)Nc1ccccc1F`, the values for the inhibition in data set [1] and in data set [2] were 6.01% and 0.484%, respectively.

Take `CCC(C)OC(=O)C1=C(C)NC2=C(C(=O)CC(C)(C)C2)C1c1ccc2c(c1)c1ccccc1n2CC` (stereo unspecified): in [1], the inhibition result was “inactive”.

Take `CCn1c2ccccc2c2cc(C3C(C(=O)OCC4CCCO4)=C(C)NC4=C3C(=O)CCC4)ccc21` (stereo unspecified): the inhibition in [1] turned out to be 84.2%; in [2], 1.73%. The inhibition result in [4] was “inactive”. In addition, the Ratio IC50 in data set [5] stood at 2. Further, the Stability entry in data set [6] and in data set [7] was “Stable” each time. Moreover, the Papp at 4 h, 10 µM in [8] was found to be 2.46 ×10⁻⁶ cm/s. The Activity result with SH-SY5Y is “Non-Toxic”. The IC50 against Cholinesterase [3] is 0.763 µM; against Cholinesterase [9] it was 443 nM.

`CCCCOC(=O)C1=C(C)NC2=C(C(=O)CCC2)C1c1ccc2c(c1)c1ccccc1n2CC` (stereo unspecified) had an inhibition in data set [1] of 53.7%.

In [1], `Cc1cc2nc([C@@H]3CCCN3C(=O)[C@H]3C[C@@H](O)CN3Cc3ccccc3)[nH]c2cc1C` came in with an inhibition of 17.5%. The inhibition entry in data set [2] was “inactive”. In addition, half-maximal inhibition against Cholinesterase [3] (IC50) required 46.8 µM.

Compound `CCOCCOC(=O)C1=C(C)NC2=C(C(=O)CC(C)(C)C2)C1c1ccc2c(c1)c1ccccc1n2CC` (stereo unspecified) displayed an inhibition in data set [1] of 2.49%.

`CCSCCOC(=O)C1=C(C)NC2=C(C(=O)CCC2)C1c1ccc2c(c1)c1ccccc1n2CC` (stereo unspecified) came in with an inhibition in data set [1] of 51.2%.

In the case of `CCCCSc1nc2c(c(=O)[nH]c(=O)n2C)n1C[C@@H](O)COc1cccc2ccccc12`, the inhibition in data set [1] amounted to 3.69%; in [2] it was 5.34%.

Turning to `O=C(Cn1cc(C(=O)C2CC2)c2ccccc21)NCCc1c[nH]c2ccccc12`, the inhibition in [1] stood at 7.28%; in data set [2], 3.44%.

For `CCn1c2ccccc2c2cc([C@@H]3C(C(=O)OCCOC)=C(C)NC4=C3C(=O)CCC4)ccc21`, the inhibition in data set [1] was found to be 52.7%; in data set [2] it was 1.35%. Moreover, the midpoint of inhibition on Cholinesterase [3], the IC50, lay at 9.72 µM.

As for `O=C(O)[C@H](Cc1c[nH]c2ccccc12)Nc1ncnc2c1oc1ccccc12`, the inhibition came out at 7.18% in [1] and 1.45% in data set [2].
